The source of these data is PubChem BioAssay AID493193 (Broad Institute, 2011).

The source made the active and inactive calls. How the calls were made is not given here.

One experiment has as its system U2OS HRE-luciferase reporter, luminescence, HIF pathway activation. The experiment in a line: PubChem AID 493193.
Conditions: not given
Regarding `Oc1ccc(CN2CCC3CCCCC3C2)c2cccnc12` (stereo not given), the AC40 was 32.7 µM.

Take `Clc1cccc(CNc2nc(-c3ccccn3)nnc2-c2ccccc2)c1`: the AC40 is 2.5 µM.

As for `Oc1ccc(CN2CCc3ccccc3C2)c2cccnc12`, the AC40 is 19.5 µM.

Turning to `COc1ccc(CNc2nc(-c3ccccn3)nnc2-c2ccccc2)cc1`, the AC40 is 5.05 µM.

As for `C[C@@H](Nc1nc(-c2ccccn2)nnc1-c1ccccc1)C1CCCCC1`, the AC40 is 6.18 µM.

Regarding `CC(C)(C)c1ccc(CNc2nc(-c3ccccn3)nnc2-c2ccccc2)cc1`, the AC40 is 2.09 µM.

Take `c1ccc(-c2ccc(CNc3nc(-c4ccccn4)nnc3-c3ccccc3)cc2)cc1`: the AC40 was 1.92 µM.

`c1ccc(-c2nnc(-c3ccccn3)nc2N2CCC(c3ccccc3)C2)cc1` (stereo not given): the AC40 is 3.55 µM.

In the case of `c1ccc(-c2nnc(-c3ccccn3)nc2N2CCC(C3CCCCC3)C2)cc1` (stereo not given), the AC40 was 3.71 µM.

`c1ccc(-c2cccc(CNc3nc(-c4ccccn4)nnc3-c3ccccc3)c2)cc1`: the AC40 is 2.15 µM.

Turning to `c1ccc(-c2nnc(-c3ccccn3)nc2NCCc2ccccn2)cc1`, the AC40 was 15.4 µM.

With `c1ccc(-c2nnc(-c3ccccn3)nc2NCc2ccccn2)cc1`, the AC40 is 26 µM.

On to `COc1cccc(CNc2nc(-c3ccccn3)nnc2-c2ccccc2)c1`, for which the AC40 was 4.85 µM.

Consider `CC(C)(C)CCNc1nc(-c2ccccn2)nnc1-c1ccccc1`, for which the AC40 is 2.74 µM.

For `CC(Nc1nc(-c2ccccn2)nnc1-c1ccccc1)c1ccccc1` (stereo not given), the AC40 was 5.33 µM.

On to `C[C@@H](Nc1nc(-c2ccccn2)nnc1-c1ccccc1)c1ccccc1`, for which the AC40 is 6.45 µM.

For `c1ccc(CCNc2nc(-c3ccccn3)nnc2-c2ccccc2)cc1`, the AC40 is 2.98 µM.

For `C[C@H](Nc1nc(-c2ccccn2)nnc1-c1ccccc1)C1CCCCC1`, the AC40 was 4.15 µM.

Turning to `c1ccc(-c2nnc(-c3ccccn3)nc2NCc2cccnc2)cc1`, the AC40 was 24.3 µM.

Regarding `c1ccc(-c2nnc(-c3ccccn3)nc2NCC2CCOCC2)cc1`, the AC40 is 26.1 µM.

For `Cc1ccc(CNc2nc(-c3ccccn3)nnc2-c2ccccc2)cc1C`, the AC40 is 3.09 µM.

Test system in another experiment: not listed separately
The experiment in a line: PubChem AID 493193. As to conditions: U2OS HRE-luciferase reporter, luminescence, HIF pathway activation; at 38 µM (top of the series). On the technique in general: Reporter assays use an easily measured gene product as a stand-in for the process of interest.
With `Oc1ccc(CN2CCc3ccccc3C2)c2cccnc12`, the activation was 0.929% (inactive).

As for `OCC1CCN(Cc2ccc(O)c3ncccc23)CC1`, the activation was 8.79% (inactive).

As to `Oc1ccc(CNC2Cc3ccccc3C2)c2cccnc12`, the activation is 21.4% (inactive).

For `CC1CN(Cc2ccc(O)c3ncccc23)CC(C)O1` (stereo not given), the activation is 1.16% (inactive).

Consider `Oc1ccc(CN2CCC(Cc3ccccc3)CC2)c2cccnc12`, for which the activation is 14.5% (inactive).

Regarding `N#CC1(c2ccccc2)CCN(Cc2ccc(O)c3ncccc23)CC1`, the activation is 9.09% (inactive).

Take `Oc1ccc(CNC2CCc3ccccc32)c2cccnc12` (stereo not given): the activation is 7.38% (inactive).

Turning to `COc1ccccc1N1CCN(Cc2ccc(O)c3ncccc23)CC1`, the activation was 10.3% (inactive).

Regarding `CC(C)(C)OC(=O)N1CCN(Cc2ccc(O)c3ncccc23)CC1`, the activation was 4.98% (inactive).
